Data as given in patent US6340703B1, “Treatment or prevention of osteoporosis” (Novogen, Inc., priority 1997, dated 2002).

What was measured:
estrogen receptors = details: relative to 17p-estradiol 100; cited from earlier work
post-menopausal women [1] = experiment: Greene Score for menopausal symptoms, 3 month study (Example 4); assay type: in vivo, human; details: 15 mg or 60 mg daily for 3 months, compared to placebo control group
Method: A group of 36 post-menopausal women experiencing menopausal symptoms were treated with a composition containing either 15 mg daidzein or 60 mg daidzein administered on a daily basis for 3 months.

bone resorption = details: Tobe et al 1997; cited from earlier work
[2] = pharmacokinetic study of formononetin following oral administration; assay type: in vivo; details: blood; human, oral 9.3 mg formononetin; read-out: half life in the blood stream (converted)
Method: A pharmacokinetic study involving 16 human patients aged between 18 and 40 was conducted, to determine the pharmacokinetics of formononetin following oral administration. Each patient was orally administered 9.3 mg of formononetin with 200 ml of purified water and maintained a low isoflavone diet for one week prior to, and during the study. Blood samples were taken at 0, 0.25, 0.5, 0.75, 1.0, 1.5, 2.0, 2.5, 3, 4, 5, 6, 8, 10 and 12 and 24 hours post administration, and analysed for formononetin concentration.

post-menopausal women [3] = experiment: six month double-blind placebo-controlled study of bone density and bone resorption markers (Example 7); assay type: in vivo, human; details: 25 mg, 50 mg or 75 mg daily, six months, with 1200 mg calcium per day
Method: The second study (double-blind, placebo-controlled) involved a six month study of the effects of phytoestrogen formononetin on bone resorption markers in twenty post-menopausal women. The aim of the study was to evaluate the efficacy of a defined daily quantity of isoflavone at 25 mg, 50 mg or 75 mg on bone resorption makers in post menopausal women and compare these to normal controls The effects of isoflavones on endometrial thickness, circulatory lipids and coagulation factors were also evaluated. Subjects were also given supplemental calcium in a dose of 1200 mg per day.

post-menopausal women [4] = experiment: bone density and bone turnover markers in high risk group for osteoporosis (Example 6); assay type: in vivo, human; details: 60 mg daily for three months, preliminary results
Method: A similar study involving 10 post-menopausal women in a high risk group for osteoporosis were also administered 60 mg formononetin daily for three months.

post-menopausal women [5] = experiment: Greene Score for menopausal symptoms, 60 mg formononetin (Example 6); assay type: in vivo, human; details: 60 mg daily for three months, relative to a control group
Method: 15 post-menopausal women who are experiencing menopausal systems are each administered 60 mg formononetin daily for three months.

endometrial cancer cells = details: Markiewicz et al 1993; potentiated cancer cell growth; cited from earlier work

## COc1ccc(-c2coc3cc(O)cc(O)c3c2=O)cc1 [biochanin, reference compound]
Estrogen receptors
  relative estrogenicity: 0.07

## O=c1c(-c2ccc(O)cc2)coc2cc(O)ccc12 [daidzein, 7,4-dihydroxy isoflavone]
post-menopausal women [1]
  Greene Score for menopausal symptoms: significant decrease
Estrogen receptors
  relative estrogenicity: 0.09
Bone resorption
  effect on bone resorption: stimulates bone resorption

## COc1ccc(-c2coc3cc(O)ccc3c2=O)cc1 [formononetin]
post-menopausal women [1]
  Greene Score for menopausal symptoms: significant decrease
Estrogen receptors
  relative estrogenicity: 0.01
[2]
  half-life: ~20 h
post-menopausal women [3]
  bone density at three sites of the forearm: significant improvement in bone density
post-menopausal women [4]
  protection against osteoporosis by bone density and bone turnover markers: protection against osteoporosis
post-menopausal women [5]
  Greene Score for menopausal symptoms: significant decrease

## O=c1c(-c2ccc(O)cc2)coc2cc(O)cc(O)c12 [genistein]
Endometrial cancer cells
  estrogen effect on endometrial cancer cells: exhibited an estrogen effect on endometrial cancer cells
